{"source": "paper PMC5129256", "about": "(International Journal of Environmental Research and Public …, 2016)", "key": {"[1]": {"experiment": "in vitro", "details": "chicken, Viability of LMH Cells (%) ± SD, MTT"}, "[2]": {"test_system": "LMH cells", "details": "for IC50 (%) / Viability of LMH Cells (%) ± SD: MTT; for IC50 (%): from dose-response curves"}, "[3]": {"test_system": "laboratory mice", "details": "mouse, in vivo; cited from earlier work"}, "[4]": {"test_system": "human colon adenocarcinoma cell line Caco-2", "parameters": "method as in ref 39 = [39]; 39. Olejnik A. Schmidt M. Wojnarowska K. Grajek W. The influence of toxic digestive metabolites on the proliferation and DNA damage of epithelial intestinal cells in vitro Food Sci. Technol. Qual. 200", "details": "Caco-2, concentrations as low as 10^-6 M; cited from earlier work"}, "[5]": {"test_system": "LMH cells", "details": "PrestoBlue; for Viability of LMH Cells (%) ±S.E.M.: 24 h"}, "[6]": {"test_system": "workers", "parameters": "method as in ref 23 = [23]; 23. The MAK Collection for Occupational Health and Safety, Trimethylamine (MAK Value Documentation, 2004), Wiley Online Library Available online: http://onlinelibrary.wiley.com/doi/10.1002/3527600418.", "details": "cited from earlier work"}}, "note": "Where two headings read alike, the source gives them in different places.", "data": [{"smiles": "c1ccc2[nH]ccc2c1", "note": "[Indole]", "values": [{"measurement": "viability", "setting": "[1]; 0.0004%, 24 h", "value": "88.6 ± 0.6", "unit": "%"}, {"measurement": "viability", "setting": "[1]; 0.0004%, 72 h", "value": "90.7 ± 1.3", "unit": "%"}, {"measurement": "viability", "setting": "[1]; 0.0008%, 24 h", "value": "95 ± 0.2", "unit": "%"}, {"measurement": "viability", "setting": "[1]; 0.0008%, 72 h", "value": "94.3 ± 2.4", "unit": "%"}, {"measurement": "viability", "setting": "[1]; 0.0016%, 24 h", "value": "97.4 ± 0.2", "unit": "%"}, {"measurement": "viability", "setting": "[1]; 0.0016%, 72 h", "value": "94.8 ± 2.1", "unit": "%"}, {"measurement": "viability", "setting": "[1]; 0.0063%, 24 h", "value": "103 ± 0.4", "unit": "%"}, {"measurement": "viability", "setting": "[1]; 0.0063%, 72 h", "value": "109 ± 2.5", "unit": "%"}, {"measurement": "viability", "setting": "[1]; 0.0125%, 24 h", "value": "95.5 ± 0.8", "unit": "%"}, {"measurement": "viability", "setting": "[1]; 0.0125%, 72 h", "value": "103 ± 1.2", "unit": "%"}, {"measurement": "viability", "setting": "[1]; 0.025%, 24 h", "value": "102.4 ± 0.2", "unit": "%"}, {"measurement": "viability", "setting": "[1]; 0.025%, 72 h", "value": "73.5 ± 2", "unit": "%"}, {"measurement": "viability", "setting": "[1]; 0.05%, 24 h", "value": "94.3 ± 0.6", "unit": "%"}, {"measurement": "viability", "setting": "[1]; 0.05%, 72 h", "value": "73 ± 1.7", "unit": "%"}, {"measurement": "viability", "setting": "[1]; 0.1%, 24 h", "value": "82.2 ± 0.2", "unit": "%"}, {"measurement": "viability", "setting": "[1]; 0.1%, 72 h", "value": "60.3 ± 1.6", "unit": "%"}, {"measurement": "viability", "setting": "[1]; […], 24 h", "value": "100 ± 0.4", "unit": "%"}, {"measurement": "viability", "setting": "[1]; […], 72 h", "value": "104 ± 1.9", "unit": "%"}, {"measurement": "cytotoxicity (in words)", "setting": "[2]", "value": "not cytotoxic"}, {"measurement": "IC50 (%)", "setting": "[2]; 72 h exposure", "value": 0.06, "unit": "%"}, {"measurement": "cytotoxicity", "setting": "[2]; chicken", "value": 39.7, "unit": "%"}]}, {"smiles": "Oc1ccccc1", "note": "[Phenol]", "values": [{"measurement": "concentration reducing the respiratory rate by 50%", "setting": "[3]", "value": 166, "unit": "ppm"}, {"measurement": "cell proliferation and cell survival", "setting": "[4]", "value": 56, "unit": "%"}, {"measurement": "cytotoxicity (in words)", "setting": "[2]", "value": "not cytotoxic"}, {"measurement": "cytotoxicity", "setting": "[2]; chicken", "value": 85.5, "unit": "%"}]}, {"smiles": "CN(C)C", "note": "[Trimethylamine]", "values": [{"measurement": "RD50", "setting": "[3]", "value": 61, "unit": "mL/m^3"}, {"measurement": "Viability of LMH Cells (%) ±S.E.M.", "setting": "[5]; 0.004%", "value": "72.4 ± 5.4", "unit": "%"}, {"measurement": "Viability of LMH Cells (%) ±S.E.M.", "setting": "[5]; 0.008%", "value": "54.3 ± 10.9", "unit": "%"}, {"measurement": "Viability of LMH Cells (%) ±S.E.M.", "setting": "[5]; 0.016%", "value": "51.9 ± 2.9", "unit": "%"}, {"measurement": "Viability of LMH Cells (%) ±S.E.M.", "setting": "[5]; 0.063%", "value": "36.6 ± 2.4", "unit": "%"}, {"measurement": "Viability of LMH Cells (%) ±S.E.M.", "setting": "[5]; 0.125%", "value": "17.1 ± 2.3", "unit": "%"}, {"measurement": "Viability of LMH Cells (%) ±S.E.M.", "setting": "[5]; 0.25%", "value": "13.6 ± 2.3", "unit": "%"}, {"measurement": "Viability of LMH Cells (%) ±S.E.M.", "setting": "[5]; 0.5%", "value": "7.1 ± 0.4", "unit": "%"}, {"measurement": "Viability of LMH Cells (%) ±S.E.M.", "setting": "[5]; 1.0%", "value": "6.0 ± 0.3", "unit": "%"}, {"measurement": "IC50 (%)", "setting": "[5]; 24 h exposure, from dose-response curves", "value": 0.02, "unit": "%"}, {"measurement": "Viability of LMH Cells (%) ±S.E.M.", "setting": "[5]; […]", "value": "38.9 ± 9.6", "unit": "%"}, {"measurement": "toxic effects in workers", "setting": "[6]; concentrations of 20 mL/m^3", "value": "irritant to the mucous membranes and the eyes"}, {"measurement": "toxic effects in workers", "setting": "[6]; mean exposure concentrations of 5 mL/m^3 for 8 h", "value": "no toxic effects"}, {"measurement": "cytotoxicity", "setting": "[2]", "value": "above 95%"}, {"measurement": "Viability of LMH Cells (%) ± SD", "setting": "[2]; 0.004%, 24 h", "value": "95.5 ± 1.9", "unit": "%"}, {"measurement": "Viability of LMH Cells (%) ± SD", "setting": "[2]; 0.004%, 48 h", "value": "92.5 ± 5.5", "unit": "%"}, {"measurement": "Viability of LMH Cells (%) ± SD", "setting": "[2]; 0.008%, 24 h", "value": "100.1 ± 3.1", "unit": "%"}, {"measurement": "Viability of LMH Cells (%) ± SD", "setting": "[2]; 0.008%, 48 h", "value": "84.9 ± 8.1", "unit": "%"}, {"measurement": "Viability of LMH Cells (%) ± SD", "setting": "[2]; 0.016%, 24 h", "value": "103.6 ± 2.2", "unit": "%"}, {"measurement": "Viability of LMH Cells (%) ± SD", "setting": "[2]; 0.016%, 48 h", "value": "72.8 ± 6.5", "unit": "%"}, {"measurement": "Viability of LMH Cells (%) ± SD", "setting": "[2]; 0.063%, 24 h", "value": "69.7 ± 5.9", "unit": "%"}, {"measurement": "Viability of LMH Cells (%) ± SD", "setting": "[2]; 0.063%, 48 h", "value": "2.8 ± 0.2", "unit": "%"}, {"measurement": "Viability of LMH Cells (%) ± SD", "setting": "[2]; 0.125%, 24 h", "value": "8.6 ± 0.5", "unit": "%"}, {"measurement": "Viability of LMH Cells (%) ± SD", "setting": "[2]; 0.125%, 48 h", "value": "5.4 ± 0.3", "unit": "%"}, {"measurement": "Viability of LMH Cells (%) ± SD", "setting": "[2]; 0.25%, 24 h", "value": "7.6 ± 0.3", "unit": "%"}, {"measurement": "Viability of LMH Cells (%) ± SD", "setting": "[2]; 0.25%, 48 h", "value": "4.1 ± 0.3", "unit": "%"}, {"measurement": "Viability of LMH Cells (%) ± SD", "setting": "[2]; 0.5%, 24 h", "value": "7.9 ± 0.2", "unit": "%"}, {"measurement": "Viability of LMH Cells (%) ± SD", "setting": "[2]; 0.5%, 48 h", "value": "3.8 ± 0.3", "unit": "%"}, {"measurement": "Viability of LMH Cells (%) ± SD", "setting": "[2]; 1.0%, 24 h", "value": "7.0 ± 0.1", "unit": "%"}, {"measurement": "Viability of LMH Cells (%) ± SD", "setting": "[2]; 1.0%, 48 h", "value": "2.5 ± 0.3", "unit": "%"}, {"measurement": "IC50 (%)", "setting": "[2]; 24 h exposure", "value": 0.08, "unit": "%"}, {"measurement": "IC50 (%)", "setting": "[2]; 48 h exposure", "value": 0.04, "unit": "%"}, {"measurement": "Viability of LMH Cells (%) ± SD", "setting": "[2]; […], 24 h", "value": "97.8 ± 1.8", "unit": "%"}, {"measurement": "Viability of LMH Cells (%) ± SD", "setting": "[2]; […], 48 h", "value": "61.7 ± 8.9", "unit": "%"}]}]}
